Data taken from patent US10765114B2, “4-amino-6-(pyridyl and 2-substitutedphenyl)-picolinates and 6-amino-2-(pyridyl and 2-substitutedphenyl)-pyrimidine-4-carboxylates and their use as herbicides” (Dow AgroSciences LLC, priority 2013, dated 2020).

Tests used:
Assay in all cases: Post-Emergent Test III (Wheat and Barley)
TRZSS = format: in vivo
In short: (§1)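 GR10-GR90 values were derived by probit analysis of visual injury (0 = no injury, 100 = complete kill versus untreated), rated 21 days after spraying. Two- to three-true-leaf plants were sprayed at 187 L/ha with serial rates (1× to 1/16×) in aqueous acetone/isopropanol/DMSO with crop oil and X-77. Greenhouse conditions were 18 °C day/17 °C night.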

HORSS = format: in vivo
In short: as §1

KCHSC (kochia) = format: in vivo, Kochia scoparia
In short: as §1

[1] = system: VERPE (Persian speedwell); format: in vivo, Veronica persica; settings: for Visual Growth Reduction (%) 21 Days After Application, VERPE: postemergence
In short: as §1

PAPRH (common poppy) = format: in vivo, Papaver rhoeas; settings: for Visual Growth Reduction (%) 21 Days After Application, PAPRH: postemergence
In short: as §1

APESV (windgrass) = format: in vivo, Apera spica-venti
In short: as §1

SASKR (Russian thistle) = format: in vivo, Salsola tragus; settings: for Visual Growth Reduction (%) 21 Days After Application, SASKR: postemergence
In short: as §1

POLCO (wild buckwheat) = format: in vivo, Polygonum convolvulus; settings: for Visual Growth Reduction (%) 21 Days After Application, POLCO: postemergence
In short: as §1

[2] = effective dose for growth reduction of 10 percent, probit analysis
[3] = effective dose for growth reduction of 20 percent, probit analysis
[4] = effective dose for growth reduction of 50 percent, probit analysis
[5] = effective dose for growth reduction of 80 percent, probit analysis
[6] = effective dose for growth reduction of 90 percent, probit analysis

## COC(=O)c1nc(-c2ccc(Cl)c(F)c2C)cc(N)c1Cl [Compound 73]
TRZSS; Triticum aestivum, post-emergence, 504 h, 35 g ai/ha, postemergence, read-out: Visual Growth Reduction (%) 21 Days After Application, TRZSS
  pest or weed control at 35 g/ha: 60 to 74%
TRZSS; Triticum aestivum, post-emergence, 504 h, 70 g ai/ha, postemergence, read-out: Visual Growth Reduction (%) 21 Days After Application, TRZSS
  pest or weed control at 70 g/ha: 60 to 74%
TRZSS; Triticum aestivum, post-emergence, 504 h, 140 g ai/ha, postemergence, read-out: Visual Growth Reduction (%) 21 Days After Application, TRZSS
  pest or weed control at 140 g/ha: 75 to 84%
TRZSS; [2]
  GR10, TRZSS: 3 g ai/ha
TRZSS; [3]
  GR20, TRZSS: 6 g ai/ha
HORSS; Hordeum vulgare, post-emergence, 504 h, 35 g ai/ha, postemergence, read-out: Visual Growth Reduction (%) 21 Days After Application, HORSS
  pest or weed control at 35 g/ha: 60 to 74%
HORSS; Hordeum vulgare, post-emergence, 504 h, 70 g ai/ha, postemergence, read-out: Visual Growth Reduction (%) 21 Days After Application, HORSS
  pest or weed control at 70 g/ha: 60 to 74%
HORSS; Hordeum vulgare, post-emergence, 504 h, 140 g ai/ha, postemergence, read-out: Visual Growth Reduction (%) 21 Days After Application, HORSS
  pest or weed control at 140 g/ha: 75 to 84%
HORSS; [2]
  GR10, HORSS: 2 g ai/ha
HORSS; [3]
  GR20, HORSS: 5 g ai/ha
KCHSC (kochia); Bassia scoparia, post-emergence, 504 h, 35 g ai/ha, postemergence, read-out: Visual Growth Reduction (%) 21 Days After Application, KCHSC
  pest or weed control at 35 g/ha: 85 to 94%
KCHSC (kochia); Bassia scoparia, post-emergence, 504 h, 70 g ai/ha, postemergence, read-out: Visual Growth Reduction (%) 21 Days After Application, KCHSC
  pest or weed control at 70 g/ha: 95 to 100%
KCHSC (kochia); Bassia scoparia, post-emergence, 504 h, 140 g ai/ha, postemergence, read-out: Visual Growth Reduction (%) 21 Days After Application, KCHSC
  pest or weed control at 140 g/ha: 95 to 100%
KCHSC (kochia); [4]
  GR50, KCHSC: 8 g ai/ha
KCHSC (kochia); [5]
  GR80, KCHSC: 21 g ai/ha
KCHSC (kochia); [6]
  GR90, KCHSC: 35 g ai/ha
[1]; 35 g ai/ha
  Visual Growth Reduction (%) 21 Days After Application, VERPE: G (0-29)
[1]; 70 g ai/ha
  Visual Growth Reduction (%) 21 Days After Application, VERPE: G (0-29)
[1]; 140 g ai/ha
  Visual Growth Reduction (%) 21 Days After Application, VERPE: F (30-44)
[1]; [4]
  GR50, VERPE: >140 g ai/ha
[1]; [5]
  GR80, VERPE: >140 g ai/ha
[1]; [6]
  GR90, VERPE: >140 g ai/ha
PAPRH (common poppy); 35 g ai/ha
  Visual Growth Reduction (%) 21 Days After Application, PAPRH: D (60-74)
PAPRH (common poppy); 70 g ai/ha
  Visual Growth Reduction (%) 21 Days After Application, PAPRH: D (60-74)
PAPRH (common poppy); 140 g ai/ha
  Visual Growth Reduction (%) 21 Days After Application, PAPRH: A (95-100)
PAPRH (common poppy); [4]
  GR50, PAPRH: 15 g ai/ha
PAPRH (common poppy); [5]
  GR80, PAPRH: 48 g ai/ha
PAPRH (common poppy); [6]
  GR90, PAPRH: 90 g ai/ha
APESV (windgrass); Apera spica-venti, post-emergence, 504 h, 35 g ai/ha, postemergence, read-out: Visual Growth Reduction (%) 21 Days After Application, APESV
  pest or weed control at 35 g/ha: 45 to 59%
APESV (windgrass); Apera spica-venti, post-emergence, 504 h, 70 g ai/ha, postemergence, read-out: Visual Growth Reduction (%) 21 Days After Application, APESV
  pest or weed control at 70 g/ha: 60 to 74%
APESV (windgrass); Apera spica-venti, post-emergence, 504 h, 140 g ai/ha, postemergence, read-out: Visual Growth Reduction (%) 21 Days After Application, APESV
  pest or weed control at 140 g/ha: 85 to 94%
APESV (windgrass); [4]
  GR50, APESV: 32 g ai/ha
APESV (windgrass); [5]
  GR80, APESV: 90 g ai/ha
APESV (windgrass); [6]
  GR90, APESV: >140 g ai/ha
SASKR (Russian thistle); 35 g ai/ha
  Visual Growth Reduction (%) 21 Days After Application, SASKR: C (75-84)
SASKR (Russian thistle); 70 g ai/ha
  Visual Growth Reduction (%) 21 Days After Application, SASKR: C (75-84)
SASKR (Russian thistle); 140 g ai/ha
  Visual Growth Reduction (%) 21 Days After Application, SASKR: C (75-84)
SASKR (Russian thistle); [4]
  GR50, SASKR: 1 g ai/ha
SASKR (Russian thistle); [5]
  GR80, SASKR: 84 g ai/ha
SASKR (Russian thistle); [6]
  GR90, SASKR: >140 g ai/ha
POLCO (wild buckwheat); 35 g ai/ha
  Visual Growth Reduction (%) 21 Days After Application, POLCO: A (95-100)
POLCO (wild buckwheat); 70 g ai/ha
  Visual Growth Reduction (%) 21 Days After Application, POLCO: A (95-100)
POLCO (wild buckwheat); 140 g ai/ha
  Visual Growth Reduction (%) 21 Days After Application, POLCO: A (95-100)
POLCO (wild buckwheat); [4]
  GR50, POLCO: 7 g ai/ha
POLCO (wild buckwheat); [5]
  GR80, POLCO: 10 g ai/ha
POLCO (wild buckwheat); [6]
  GR90, POLCO: 12 g ai/ha
